{"source": "PubChem BioAssay (NCI)", "note": "“And” between values parts separate entries of the source, which are not always exact repeats. Identical values can stand only once.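 Cultured in 96-well plates, cells were exposed to test compound for 48 hours across five concentrations. GI50 marks 50% less growth. TGI: concentration producing complete growth inhibition.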"}
{"test_system": "CAKI-1 renal", "experiment": "DTP human tumour cell line panel, 48 h", "units": {"GI50": "µM", "TGI": "µM"}}
{"smiles": "Cn1nccc1Nc1nccc(-c2ccn([C@H](CO)c3ccc(Cl)c(F)c3)c(=O)c2)n1", "GI50": 34.3, "TGI": "> 100"}
{"smiles": "CCOC(=O)c1nc(C)oc1C(F)(F)F", "TGI": "> 100"}
{"smiles": "N#CC1c2ccccc2C=CN1C(=O)CCCl", "note": "(configuration not stated)", "GI50": 8.38, "TGI": 22.7}
{"smiles": "O=C1/C(=C\\c2ccccc2)CN(C(=O)CCN2CCCCC2)C/C1=C/c1ccccc1", "TGI": 3.74}
{"smiles": "O=C1NC(=N[C@@H](CO)c2ccccc2)S/C1=C\\c1ccc2ncccc2c1", "GI50": 3.06, "TGI": "> 25"}
{"smiles": "Cc1ccc(S(=O)(=O)OCC/C(=C\\[Si](C)(C)C)c2ccccc2)cc1", "TGI": "> 100"}
{"smiles": "O=C1/C(=C/c2ccc(Cl)c(Cl)c2)CN(C(=O)CCN2CCC(=NO)CC2)C/C1=C\\c1ccc(Cl)c(Cl)c1", "GI50": 0.584, "TGI": 1.78}
{"smiles": "CCNc1nc(O)c(/C=C2\\C=Nc3ncccc32)s1", "GI50": 3.66, "TGI": "> 100"}
{"smiles": "CCc1ccccc1NC(=O)c1cccc([N+](=O)[O-])c1O", "TGI": "> 100"}
{"smiles": "O=C(/C=C/C12c3ccccc3C(c3ccccc31)C1C(=O)NC(=O)C12)c1ccccn1", "note": "(configuration not stated)", "GI50": 1.66, "TGI": 4.38}
{"smiles": "CC1=C(C(=O)Nc2ccccc2)C(c2ccc(N(C)C)cc2)C(C(=O)Nc2ccccc2)=C(C)N1", "TGI": "> 100"}
{"test_system": "HOP-92 NSCLC", "experiment": "DTP human tumour cell line panel, 48 h"}
{"smiles": "c1ccc(-c2[nH]ncc2-c2ccnc(-c3ccc(OCCn4ccnc4)cc3)c2)nc1", "GI50": "> 25 µM", "TGI": "> 25 µM"}
{"smiles": "O=C1c2cccc(Oc3ccccc3)c2C(=O)c2cccc(Oc3ccccc3)c21", "GI50": "8.98 µM", "TGI": "51.2 µM"}
{"smiles": "O=C(OCc1ccc2c(Br)cc(Br)c(O)c2n1)c1cc2ccccc2[nH]1", "GI50": "0.548 µM", "TGI": "2.15 µM"}
{"smiles": "CC(C)(CO)CNC(=O)c1ccc2[nH]c(O)c(N=Nc3ccc(S(N)(=O)=O)cc3)c2c1", "GI50": "> 25 µM", "TGI": "> 25 µM"}
{"smiles": "Cc1cc(O)c2c(c1)C(=O)C=CC2=O", "GI50": "2.33 µM and 2.51 µM", "TGI": "5.15 µM and 7.69 µM"}
{"smiles": "CC1(C)N=C(N)N=C(N)N1c1ccc(CCC(=O)Nc2ccc(S(=O)(=O)F)cc2)cc1", "GI50": "5.31 µM", "TGI": "> 100 µM"}
{"smiles": "N#CC1(c2ccc(NC(=O)c3cccnc3NCc3ccncc3)cc2)CCCC1", "GI50": "19.3 µM", "TGI": "> 100 µM"}
{"smiles": "CCN1C(=S)N(CC)C2C1NC(=S)N2/N=C/C=C/c1ccccc1OC", "note": "(configuration not stated)", "GI50": "3.56 µM", "TGI": "> 76.7 µM"}
{"smiles": "Cn1nccc1Nc1nccc(-c2ccn([C@H](CO)c3ccc(Cl)c(F)c3)c(=O)c2)n1", "GI50": "1.36 µM", "TGI": "40 µM"}
{"smiles": "CCOC(=O)c1nc(C)oc1C(F)(F)F", "TGI": "> 100 µM"}
{"smiles": "N#CC1c2ccccc2C=CN1C(=O)CCCl", "note": "(configuration not stated)", "GI50": "1.53 µM", "TGI": "3.76 µM"}
{"smiles": "O=C1/C(=C\\c2ccccc2)CN(C(=O)CCN2CCCCC2)C/C1=C/c1ccccc1", "TGI": "10.2 µM"}
{"smiles": "O=C1NC(=N[C@@H](CO)c2ccccc2)S/C1=C\\c1ccc2ncccc2c1", "GI50": "11.1 µM", "TGI": "> 25 µM"}
{"smiles": "Cc1ccc(S(=O)(=O)OCC/C(=C\\[Si](C)(C)C)c2ccccc2)cc1", "TGI": "> 100 µM"}
{"smiles": "O=C1/C(=C/c2ccc(Cl)c(Cl)c2)CN(C(=O)CCN2CCC(=NO)CC2)C/C1=C\\c1ccc(Cl)c(Cl)c1", "GI50": "1.56 µM", "TGI": "3.82 µM"}
{"smiles": "CCNc1nc(O)c(/C=C2\\C=Nc3ncccc32)s1", "GI50": "1.08 µM", "TGI": "> 100 µM"}
{"smiles": "CCc1ccccc1NC(=O)c1cccc([N+](=O)[O-])c1O", "TGI": "45.4 µM"}
{"smiles": "O=C(/C=C/C12c3ccccc3C(c3ccccc31)C1C(=O)NC(=O)C12)c1ccccn1", "note": "(configuration not stated)", "GI50": "1.98 µM", "TGI": "4.54 µM"}
{"smiles": "CC1=C(C(=O)Nc2ccccc2)C(c2ccc(N(C)C)cc2)C(C(=O)Nc2ccccc2)=C(C)N1", "TGI": "> 94.6 µM"}
{"test_system": "KM12 colon", "experiment": "DTP human tumour cell line panel, 48 h", "units": {"GI50": "µM"}}
{"smiles": "c1ccc(-c2[nH]ncc2-c2ccnc(-c3ccc(OCCn4ccnc4)cc3)c2)nc1", "GI50": 13.7, "TGI": "> 25 µM"}
{"smiles": "O=C1c2cccc(Oc3ccccc3)c2C(=O)c2cccc(Oc3ccccc3)c21", "GI50": "> 100", "TGI": "> 100 µM"}
{"smiles": "O=C(OCc1ccc2c(Br)cc(Br)c(O)c2n1)c1cc2ccccc2[nH]1", "GI50": 1.52, "TGI": "3.09 µM"}
{"smiles": "CC(C)(CO)CNC(=O)c1ccc2[nH]c(O)c(N=Nc3ccc(S(N)(=O)=O)cc3)c2c1", "GI50": "> 25", "TGI": "> 25 µM"}
{"smiles": "Cc1cc(O)c2c(c1)C(=O)C=CC2=O", "TGI": "32.9 µM and 32.5 µM"}
{"smiles": "CC1(C)N=C(N)N=C(N)N1c1ccc(CCC(=O)Nc2ccc(S(=O)(=O)F)cc2)cc1", "GI50": 0.64, "TGI": "> 100 µM"}
{"smiles": "N#CC1(c2ccc(NC(=O)c3cccnc3NCc3ccncc3)cc2)CCCC1", "GI50": 23, "TGI": "73 µM"}
{"smiles": "CCN1C(=S)N(CC)C2C1NC(=S)N2/N=C/C=C/c1ccccc1OC", "note": "(configuration not stated)", "GI50": 0.27, "TGI": "15.8 µM"}
{"smiles": "Cn1nccc1Nc1nccc(-c2ccn([C@H](CO)c3ccc(Cl)c(F)c3)c(=O)c2)n1", "GI50": 18.8, "TGI": "> 100 µM"}
{"smiles": "CCOC(=O)c1nc(C)oc1C(F)(F)F", "TGI": "> 100 µM"}
{"smiles": "N#CC1c2ccccc2C=CN1C(=O)CCCl", "note": "(configuration not stated)", "GI50": 16.9, "TGI": "42.6 µM"}
{"smiles": "O=C1/C(=C\\c2ccccc2)CN(C(=O)CCN2CCCCC2)C/C1=C/c1ccccc1", "TGI": "1.24 µM"}
{"smiles": "O=C1NC(=N[C@@H](CO)c2ccccc2)S/C1=C\\c1ccc2ncccc2c1", "GI50": 10.8, "TGI": "> 25 µM"}
{"smiles": "Cc1ccc(S(=O)(=O)OCC/C(=C\\[Si](C)(C)C)c2ccccc2)cc1", "TGI": "> 100 µM"}
{"smiles": "O=C1/C(=C/c2ccc(Cl)c(Cl)c2)CN(C(=O)CCN2CCC(=NO)CC2)C/C1=C\\c1ccc(Cl)c(Cl)c1", "GI50": 0.368, "TGI": "1.14 µM"}
{"smiles": "CCNc1nc(O)c(/C=C2\\C=Nc3ncccc32)s1", "GI50": 3.05, "TGI": "12.4 µM"}
{"smiles": "CCc1ccccc1NC(=O)c1cccc([N+](=O)[O-])c1O", "TGI": "48.6 µM"}
{"smiles": "O=C(/C=C/C12c3ccccc3C(c3ccccc31)C1C(=O)NC(=O)C12)c1ccccn1", "note": "(configuration not stated)", "GI50": 1.43, "TGI": "3.03 µM"}
{"smiles": "CC1=C(C(=O)Nc2ccccc2)C(c2ccc(N(C)C)cc2)C(C(=O)Nc2ccccc2)=C(C)N1", "TGI": "27.2 µM"}
